Like-named read-outs stand apart in the source and are kept apart here.
What was measured:
[1] = Gravimetric vapour sorption (GVS); assay type: physicochemical
Description: Sorption isotherms were obtained using a Hiden IGASorp moisture sorption analyzer, controlled by CFRSorp software. The sample temperature was maintained at 25° C. by a Huber re-circulating water bath. The humidity was controlled by mixing streams of dry and wet nitrogen, with a total flow rate of 250 mL·min^−1. The relative humidity was measured by a calibrated Vaisala RH probe (dynamic range of 0-95% RH), located near the sample. The weight change, (mass relaxation) of the sample as a function of % RH was constantly monitored by the microbalance (accuracy ±0.001 mg).
Typically 10-20 mg of sample was placed in a tared mesh stainless steel basket under ambient conditions. The sample was loaded and unloaded at 40% RH and 25° C. (typical room conditions).
A moisture sorption isotherm was performed as outlined below (2 scans giving 1 complete cycle). The standard isotherm was performed at 25° C. at 10% RH intervals over a 0-90% RH range.
The software uses a least squares minimization procedure together with a model of the mass relaxation, to predict an asymptotic value. The measured mass relaxation value must be within 5% of that predicted by the software, before the next RH value is selected. The minimum equilibration time was set to 1 hour and the maximum to 4 hours.
The sample was recovered after completion of the isotherm and re-analyzed by XRPD.

pKa of Compound 1 = assay type: physicochemical
in vivo = conditions: male, beagle, dog, po, 10 mg/kg
Description: (§1) The study was designed to compare the PK profiles of the following four forms of Compound 1 administered as single oral capsules in fasted state. […] There was a washout period of 4 days between dosing. The blood samples were collected from each animal at predetermined times on the study Days 1, 4, 8 and 11. The plasma was analyzed for Compound 1 by a validated HPLC-MS/MS assay.
(§2) Descriptive PK parameters were determined by standard model independent methods (Gibaldi and Perrier, 1982) based on the individual plasma concentration-time data. Plasma concentrations were rounded to 3 significant figures. Plasma samples with concentrations below the quantifiable assay limit (BQL<2.00 ng/mL) were assigned values of zero for mean calculations. For PK calculations, BQL was set to zero from the pre-dose time up to the time of the first quantifiable concentration and thereafter was set as missing. Nominal time points were used for all calculations. • Cmax is the observed maximum plasma concentration after dosing. • Tmax is the time to reach Cmax. • T1/2 is apparent half-life calculated by ln(2)/λ where λ is the rate constant fix the log-linear portion of the terminal phase. A minimum of three values in the post-distribution phase of the plasma concentration-time curve is required for calculation of X. • AUC(0-T) is the area under the plasma concentration-time curve from time zero to the time of the last measurable plasma concentration determined using the linear trapezoidal rule. • AUC(0-inf) is the area under the plasma concentration-time curve from time zero to infinity. It is calculated by summing AUC(0-T) and the extrapolated area from the T to infinity.
(§3) PK analyses were performed by noncompartmental analysis using model 200 in WinNonlin Professional 6.1 (Pharsight Corp., Mountain View, Calif.).

[2] = dog, in vivo, po, 10 mg/kg
Description: as §1, §2, §3

[3] = Storage of amine salts at elevated humidity (deliquescence); assay type: physicochemical
Description: The tromethamine salt deliquesced at 25° C./94% RH. As a result, neither of these amine salts were suitable for pharmaceutical development.

COc1ccc2c(c1OCc1ccccc1)C[C@@H](C(=O)[O-])N(C(=O)C(c1ccccc1)c1ccccc1)C2.[Na+] [material from acetonitrile (MeCN)]
GVS weight gained by 40% RH ([1]; from 0% RH to 40% RH): 6% | GVS weight change when taken up to 90% RH ([1]; from 40% RH to 90% RH, 25° C.): about 17% | GVS total weight drop ([1]; from 90% RH to 0% RH): 19% | GVS weight at 0% RH ([1]; taken down to 0% RH, 25° C.): −2%

COc1ccc2c(c1OCc1ccccc1)C[C@@H](C(=O)O)N(C(=O)C(c1ccccc1)c1ccccc1)C2 [Compound 1, (S)-2-(diphenylacetyl)-1,2,3,4-tetrahydro-6-methoxy-5-(phenylmethoxy)-3-isoquinoline carboxylic acid]
pKa (pKa of Compound 1): ~3.86 | AUC(0-inf) (in vivo; Mean AUC(0-inf)): 680 ± 412 ng·h/mL | half-life (in vivo; Mean harmonic T1/2): 2.11 ± 0.115 h | half-life (in vivo; T1/2): 2.18 h | Tmax (in vivo; Tmax): 1 h | Cmax (in vivo; mean Cmax): 294 ± 238 ng/mL | Tmax (in vivo; median Tmax): 2 h | Plasma concentration of Compound 1, 0.25 h [2]: BQL | Plasma concentration of Compound 1, 0.5 h [2]: BQL | Plasma concentration of Compound 1, 0.75 h [2]: BQL | Plasma concentration of Compound 1, 12 h [2]: BQL | Plasma concentration of Compound 1, 24 h [2]: BQL | Plasma concentration of Compound 1, Predose [2]: BQL | Plasma concentration of Compound 1, Predose ([2]; male, beagle): 0.00 ng/mL | Plasma concentration of Compound 1, 24 h ([2]; male, beagle, 24 h): 0.00 ng/mL

COc1ccc2c(c1OCc1ccccc1)C[C@@H](C(=O)O)N(C(=O)C(c1ccccc1)c1ccccc1)C2.NC(CO)(CO)CO [tromethamine salt]
behaviour on storage at 25° C./94% RH [3]: deliquesced
